Experiment: Bubble test, corrosion inhibition performance in brine (LPR)
Conditions: Forties synthetic brine, 55° C., CO2 saturated
Method: Corrosion Inhibition Performance in Brine
The tests were carried out using the well-known “bubble test” method, see for instance the discussion in NACE International, Vol. 46, No. 5, pp 46-51 (May 2007), where the corrosion rate is monitored by linear polarisation (LPR). First a baseline corrosion rate in the medium is established, and then corrosion rates with different amounts of inhibitor added are measured.
The detailed conditions for the tests were as follows:
CO2 CO2 Saturated at ambient pressure (˜0.9 bara partial pressure)
Solution 100% Typical “Forties” (North Sea water) synthetic brine as shown below:
• Chloride=42.539 mg/l • Sulphate=0 mg/l • Barium=173 mg/l • Calcium=1.979 mg/l • Strontium=351 mg/l • Magnesium=377 mg/l • Sodium=24.973 mg/l • Potassium=341 mg/l • Bicarbonate=200 mg/l Electrode Fabricated from AISI 1018 (UNS G10180), polished to 600 grit finish, degreased, rinsed, and dried Inhibitor Concentration 4 hour precorrosion without inhibitor, then dose with 10 or 20 mg/kg of inhibitor and evaluate corrosion rate for at least 8 h, then add inhibitor so that the next level of total inhibitor dosage is reached according to Table 1. After each addition the corrosion rate is measured for at least 8 h. Gas and partial Ambient pressure test. Maximum partial pressure 1 pressure bara (less saturated water vapour pressure at test temperature). Corrosion Monitoring LPR±10 mV step perturbation with a 2-minute time constant. A Stearn-Geary constant of 25 mV was used to calculate corrosion rates from LPR data. Corrosion rates were monitored throughout each test with a measurement taken every 30 minutes. […] The corrosion inhibitor bases were formulated as follows prior to testing: 40% base product 4% glacial acetic acid 20% n-butanol 36% water The % protection was calculated from the following equation: % protection=(1−(x/y))*100 wherein x=corrosion rate in the presence of corrosion inhibitor (mm/year) • y=corrosion rate in the absence of corrosion inhibitor (mm/year)

## C12-C16 Coco benzyl quaternary amine [Quaternary amine*]
20 ppm inhibitor
  % Protection: −28.3%
50 ppm inhibitor
  % Protection: 38.0%
100 ppm inhibitor
  % Protection: 97.7%

Source: US8372336B2, “Polymeric corrosion inhibitors” (Akzo Nobel Chemicals International B.V., priority 2009, dated 2013)
